Values of other authors in patent publication US6191117A, “Methods of producing weight loss and treatment of obesity” (priority 2000, dated 2001).
Entries after “also recorded” stand apart in the source; their conditions may differ. Where two headings read alike, the source gives them in different places.

Key:
[1] = test system: lateral hypothalamus; conditions: injection into lateral hypothalamus
[2] = test system: strychnine-insensitive glycine-binding site
[3] = test system: NMDA receptor glycine site; conditions: bilateral LH injection
[4] = test system: NMDA receptor glycine site
[5] = test system: NMDA receptors
[6] = test system: NMDA receptors; conditions: in vivo
[7] = test system: lateral hypothalamus; conditions: rats previously given intrahypothalamic injections
[8] = test system: sodium channel
[9] = test system: carbonic anhydrase CA-IV; conditions: compared with acetozolamide
[10] = test system: carbonic anhydrase CA-II; conditions: compared with acetozolamide
[11] = test system: patients with seizures
[12] = test system: young healthy adults; conditions: acute doses and 2- and 4-week test periods
[13] = test system: NMDA receptor
[14] = test system: kainate/AMPA receptor
[15] = test system: carbonic anhydrase
[16] = not given; remark: listed apart in the source
[17] = test system: human plasma proteins
[18] = test system: seizure patients; conditions: for patients with weight decrease: adjunctive therapy, control 3%
[19] = test system: GABA receptor
[20] = test system: cerebral GABA; conditions: within three hours of oral administration
[21] = test system: PFH (perifornical hypothalamus)
[22] = test system: PVN (paraventricular nucleus)
[23] = injection into LH bilaterally for 8 days
[24] = another study, epileptic patients
[25] = clinical trials on seizure patients

## Cc1onc(O)c1CC(N)C(=O)O (racemic) [AMPA, D,L-α-amino-3-hydroxy-5-methyl-isoxazole proprionic acid]
[1]
  eating response on LH injection: elicit a strong dose-dependent eating response; also recorded: elicited eating in a dose-dependent fashion; also recorded: trigger intense eating; also recorded: quantitatively similar eating responses

## O=C(O)c1cc(O)c2ccc(Cl)cc2n1 [7-CK, 7-chlorokynurenic acid]
[2]; into intracerebral ventricles or paraventricular nucleus
  food intake: dose-dependently increased food intake
[3]
  eating produced by fasting: effectively suppressed eating produced by fasting
[4]; 7-CK 0.1 nmol
  AMPA-elicited eating: suppressed feeding elicited by KA or AMPA; also recorded: virtually blocking it
  KA-elicited eating: suppressed feeding elicited by KA or AMPA; also recorded: suppressed KA-elicited eating
  NMDA-elicited eating: enhanced NMDA-elicited eating
[4]; 7-CK 10 nmol
  AMPA-elicited eating: suppressed eating elicited by AMPA
  KA-elicited eating: enhancing eating elicited by KA; also recorded: markedly enhanced the KA-elicited response
  NMDA-elicited eating: blocked NMDA-elicited eating
[4]; LH injection before NMDA, satiated rats, dose not stated (high doses)
  NMDA-elicited eating: blocked

## N[C@H](CCCP(=O)(O)O)C(=O)O [D-AP5]
[5]; in vivo
  suppression of deprivation-induced eating responses: ≤ 61%
  suppression of nocturnal eating: ≤ 40%
[5]; [23]
  body weight loss: up to 13 grams/day
  reduction in daily food intake: 65%
[6]
  eating responses elicited by AMPA: without affecting
  eating responses elicited by kainic acid: without affecting
  reduction of the 10-gram eating response elicited by NMDA: 72-90%

## N[C@H](CO)C(=O)O [D-serine]
[2]; rat, in vivo
  7CK induced feeding: dose-dependently antagonized 7CK induced feeding

## C=C(C)[C@H]1CN[C@H](C(=O)O)[C@H]1CC(=O)O [KA, Kainic acid]
[1]
  eating response on LH injection: elicit a strong dose-dependent eating response; also recorded: elicited eating in a dose-dependent fashion; also recorded: trigger intense eating
[1]; listed as kainic acid
  eating response on LH injection: quantitatively similar eating responses
[7]
  feeding and drinking: impaired

## Nc1nnc(-c2cccc(Cl)c2Cl)c(N)n1 [LTG]
[8]
  action on sodium channel: blocking the sodium channel
100 mg and 200 mg, adjunctive therapy and monotherapy
  anorexia and nausea incidence: 6-15%
12 months or up to 144 weeks
  effect on body weight: no significant effect on body weight

## CC1(C)O[C@@H]2[C@@H](CO[C@@]3(COS(N)(=O)=O)OC(C)(C)O[C@@H]23)O1 [TPM, 2,3:4,5-DI-O-isolpropylidene-B-D-fructopyranose sulfamate]
[9]
  inhibition of CA-IV: weaker than that of acetozolamide
[10]
  inhibition of CA-II: weaker than that of acetozolamide
[11]; 200 to 400 mg/day
  dose dependence of common adverse events: did not appear to be dose-related
[11]; 200 to 400 mg/day adjunctive therapy
  discontinuation due to adverse events: 11%
[11]; 200 to 400 mg/day, adults
  common adverse events, controlled trials: somnolence, dizziness, ataxia, speech disorders and related speech problems, psychomotor slowing, abnormal vision, difficulty with memory, paresthesia and diplopia
[11]; 200 to 1,000 mg/day
  most common dose-related adverse events: fatigue, nervousness, difficulty with concentration or attention, confusion, depression, anorexia, language problems, anxiety, mood problems, and weight decrease
[11]; 200 to 1,000 mg/day, rapid dose titration of 200 mg/day
  course of adverse events: abated after 4 months of treatment
[11]; about, expected in a similar, untreated population
  renal calculi incidence relative to similar untreated population: 2-4 times
[11]; add-on therapy
  nonspecific CNS effects occasionally observed: dizziness or imbalance, confusion, memory problems, and exacerbation of mood disturbances (i.e., irritability and depression)
[11]; adults
  renal calculi (kidney stones) incidence: 1.5%
[11]; clinical trials, early in therapy
  severity of somnolence and fatigue: generally mild to moderate
[11]; dosages above 400 mg/day
  dose dependence of fatigue incidence: increases at dosages above 400 mg/day
[11]; human, in vivo
  central nervous system adverse events: psychomotor slowing, difficulty with concentration, and speech or language problems, in particular, word-finding difficulty and somnolence and/or fatigue
  correlation of plasma concentrations with adverse events: not correlated with the occurrence of adverse events
  dose dependence of somnolence incidence: does not appear to be dose-related
[11]; increased at dosages above 400 mg/day
  adverse events associated with discontinuing therapy: somnolence, dizziness, anxiety, difficulty with concentration or attention, fatigue, and paresthesia
[11]; post-marketing data
  post-marketing adverse experiences: hepatic failure, hepatitis, pancreatitis, and renal tubular acidosis
[8]
  action on sodium channel: voltage-sensitive sodium channel blocking action
[12]
  attention and word fluency: statistically significant declines on measures of attention and word fluency
[13]
  activity at the NMDA receptor: no effect on the activity of N-methyl-D-aspartate (NMDA)
[14]
  activity at the kainate/AMPA receptor: antagonizing the kainate/AMPA
[15]
  carbonic anhydrase inhibition: weak carbonic anhydrase inhibitor
  effect on urinary citrate excretion and urinary pH: reducing urinary citrate excretion and by increasing urinary pH
[16]; 400 mg dose
  time to peak (TTP) plasma concentrations: about 2 hours
[16]; 100-mg dose
  dose recovered in urine: 81-95%
[16]; 200 to 800 mg/day
  linearity of pharmacokinetics: linear with dose proportional increases in plasma concentration
[16]; TPM and its metabolites
  route of elimination: predominantly renal
[16]; hepatic impairment
  increase of plasma concentrations: 29%
[16]; hepatically impaired subjects
  clearance in hepatically impaired subjects: may be decreased
[16]; in vivo
  extent of metabolism: not extensively metabolized
  metabolites identified in humans: Six metabolites
  renal tubular reabsorption: evidence of renal tubular reabsorption
  routes of metabolite formation: hydroxylation, hydrolysis, and glucuronidation
[16]; moderate or severe renal impairment
  plasma levels in moderate or severe renal impairment: plasma levels are increased
[16]; moderate renal impairment (creatinine clearance 30-69 mL/min/1.73 m^2) vs normal
  reduction of clearance: 42%
[16]; of an administered dose
  eliminated unchanged in the urine: approximately 70%
[16]; oral
  absorption: rapid; also recorded: nearly complete
[16]; patients with normal renal function
  elimination half-life: 20 to 30 h
[16]; predominantly renal elimination
  dose excreted as unchanged TPM: 50-80%
[16]; severe renal impairment (creatinine clearance <30 mL/min/1.73 m^2) vs normal
  reduction of clearance: 54%
[16]; single or multiple doses
  mean plasma concentration half-life: 21 h
[16]; tablet
  relative bioavailability, effect of food: not affected by food
[17]; 1-250 μg/ml
  bound to human plasma proteins: 13-17%
[17]; concentration not given
  plasma protein binding: approximately 15%
[18]; 200-400 mg/day
  patients with weight decrease: 9%
[18]; 600-1,000 mg/day
  patients with weight decrease: 13%
[18]; also treated with valproate, or valproate with carbamazepine
  weight loss with valproate or valproate plus carbamazepine co-treatment: tended to be higher
[18]; another study, 2/12 patients
  amount of weight increase: 12-25 pounds
[18]; another study, 5/12 patients
  amount of weight loss: 12-42 pounds
[18]; [24]
  patients with weight increase: 2/12
  patients with weight loss: 5/12
[18]; [25]
  average decline from baseline weight: 2-8%
  average weight loss: 2 to 8 kg
[18]; human, in vivo
  report of anorexia in patients with weight loss: more likely to report anorexia or loss of appetite
  time to peak of weight loss: 12-15 months
[18]; prolonged therapy
  body weight after prolonged therapy: gradually returning toward pre-topiramate levels
[18]; treated for up to 2.2 years
  patients with weight loss, long-term study: 26%
[19]
  action on GABA: potentiation of the effects of GABA
[20]
  brain levels of cerebral GABA: acutely increase brain levels of cerebral GABA

## NC(=O)N1c2ccccc2C=Cc2ccccc21 [carbamazepine]
[18]
  weight gain as monotherapy: associated with weight gain

## NCCc1ccc(O)c(O)c1 [dopamine]
[21]
  effect on eating in PFH: feeding-suppressive effects

## CNC[C@H](O)c1ccc(O)c(O)c1 [epinephrine]
[21]
  effect on eating in PFH: feeding-suppressive effects

## N[C@@H](CCC(=O)O)C(=O)O [glutamate]
[1]
  eating response on LH injection: elicit a strong dose-dependent eating response; also recorded: elicited eating in satiated rats
[22]
  effect on eating in PVN: relatively ineffective
[22]; PVN injections
  autonomic and endocrine effects (PVN injection): can produce autonomic and endocrine effects
[21]
  effect on eating in PFH: relatively ineffective
[21]; PFH injections
  autonomic and endocrine effects (PFH injection): can produce autonomic and endocrine effects

## NCC(=O)O [glycine]
[4]; LH pretreatment
  block by 7-CK of NMDA-elicited eating, after LH pretreatment with glycine: reversed this block

## NC[C@H](O)c1ccc(O)c(O)c1 [norepinephrine]
[22]
  effect on eating in PVN: feeding-stimulatory effects

## CCCC(CCC)C(=O)O [valproate]
[18]
  weight gain as monotherapy: associated with weight gain

## NCCCC(=O)O [γ-aminobutyric acid]
[22]
  effect on eating in PVN: feeding-stimulatory effects

## neuropeptide Y
[21]
  effect on eating in PFH: feeding-stimulatory effects
